Experiments:
[1] = system: L-FABP mRNA in human urinary exfoliated cells (human renal tubular epithelial cells); test: L-FABP up-regulating activity at mRNA level (RT-PCR) in human urinary exfoliated cells; assay type: cell-based; details: 10 μM (Table 1), listed as THA
Experimental: Renal tubular epithelial cells exfoliated from kidney tissues into urine (hereafter, referred to as “urinary exfoliated cell”) were isolated from human urine sample and cultured in the following manner. Firstly, urine samples from male infant nephritis patients (0-3 years old) were collected using the clean-catch method. The urine samples were then centrifuged (1000 rpm, 10 minutes) at room temperature and the supernatant was discarded. The pellet was washed with 10% (v/v) fetal calf serum-containing Dulbecco's modified Eagle's medium twice and then with culture medium once. The culture medium used herein was a mixture (1:1) of Dulbecco's modified Eagle's medium and Ham's F-12 medium, to which mixture was added fetal calf serum (10% v/v), insulin (5 μg/ml), transferrin (5 μg/ml), sodium selenite (5 ng/ml), dexamethasone (10^−8 M), nicotinamide (5 mM), penicillin (100 IU/ml) and streptomycin (100 μg/ml). The pellet was suspended into the culture medium, diluted appropriately and then cultured in collagen type 4-coated dish (3.5 cm in diameter, Falcon). The cultivation was performed under the condition of 5% CO2, 37° C. […] Also, in order to normalize the measurement values, rBAT (related to b^0,+ system amino acid transporter; Purroy et. al., Genomics, Vol 37. pp. 249-252, 1996) mRNA was detected as control by RT-PCR.

[2] = system: human L-FABP gene transcriptional regulatory region (luciferase reporter); test: L-FABP up-regulating activity by luciferase reporter assay in proximal renal tubular epithelial cell line mProx 37-13; assay type: cell-based; details: mProx 37-13 cells, serum-free medium, luciferase measured after 2 to 10 hours; FIG. 4
Experimental: A test substance was examined for the L-FABP up-regulating activity by reporter assay method in the following manner using the proximal renal tubular epithelial cell line mProx 37-13 (also referred as “cell line No. 13”) comprising L-FABP reporter DNA construct and was prepared in Example 2 above. Firstly, the cell line mProx 37-13 was added in 96-well flat-bottom plates at 5×10^4 cells/ 100 μl/well and cultured. The cultivation was conducted using plates pre-coated with 0.1% gelatin and, as a medium, a high glucose-containing Dulbecco's MEM medium (Dulbecco's MEM, high glucose; DMEM) (Gibco) supplemented with 10% fetal calf serum, 100 unit/ml of penicillin and 100 μg/ml of streptomycin. […] After additional cultivation, Luciferase activity was detected after 2 to 10 hours. Luciferase activity was measured in the following way. […] After the plate stored at −80° C. was allowed to become room temperature, 100 μl of luminescence substrate solution (PicaGene luminescence kit, TOYO INK) was added to initiate reaction. Amount of luminescence was detected using luminometer (MicroLumat LP98P, BERTHOLD). […] The luciferase induction rate (Luc induction rate) was calculated based on the activity value according to the following equation: Luc induction rate=(test value)/(control value).

[3] = system: human L-FABP; test: L-FABP up-regulating activity at protein level (Western blotting or ELISA) in LLC-PK1 or mouse immortalized renal tubular epithelial cells carrying the human L-FABP chromosomal gene; assay type: cell-based; details: 1 μM, serum-free DMEM; anti-human L-FABP antibody
Excerpt: The plasmid isolated in Example 1, (2) above, which contains human L-FABP chromosomal gene (entire length), was linealized and transfected into the porcine renal tubular cell line LLC-PK1 or mouse immortalized renal tubular epithelial cells prepared in a manner similar to that described in Example 2 (3) above to obtain stable transformed cell lines. The human L-FABP chromosomal gene was integrated into these cells on their chromosome without deletion. Using these cells, L-FABP up-regulating activity of test compounds were examined at RNA level and protein level in the following manner. Cells were cultured to become confluent, when the medium was replaced with serum-free DMEM medium, and test compounds were added to the medium at final concentration of 1 μM. The cultivation was continued at 37° C. Control sample was obtained without adding any test compounds. Measurement at protein level was carried out in the following manner. Cultivated cells were collected and sonicated and then cell extract was prepared. The amount of L-FABP in the extract was detected by Western Blotting method or ELISA method with anti-human L-FABP antibody. […] The up-regulating effect on L-FABP protein expression was also observed when Etomoxir was added.

[4] = system: human L-FABP mRNA; test: L-FABP up-regulating activity at mRNA level (RT-PCR) in LLC-PK1 or mouse immortalized renal tubular epithelial cells carrying the human L-FABP chromosomal gene; assay type: cell-based; details: 1 μM, serum-free DMEM; from 15 minute to 24 hour after beginning of cultivation; normalised to GAPDH mRNA
Excerpt: The plasmid isolated in Example 1, (2) above, which contains human L-FABP chromosomal gene (entire length), was linealized and transfected into the porcine renal tubular cell line LLC-PK1 or mouse immortalized renal tubular epithelial cells prepared in a manner similar to that described in Example 2 (3) above to obtain stable transformed cell lines. The human L-FABP chromosomal gene was integrated into these cells on their chromosome without deletion. Using these cells, L-FABP up-regulating activity of test compounds were examined at RNA level and protein level in the following manner. Cells were cultured to become confluent, when the medium was replaced with serum-free DMEM medium, and test compounds were added to the medium at final concentration of 1 μM. The cultivation was continued at 37° C. Control sample was obtained without adding any test compounds. Measurement at mRNA level was carried out in the following manner. After cultivation, cells were collected and total RNA was prepared. […] Also, in order to normalize the measurement values, GAPDH (glyceraldehyde 3-phosphate dehydrogenase) mRNA was detected as control in the similar RT-PCR. The resulted PCR products were subjected to agarose-gel electrophoresis, the gel was stained with ethidium bromide to detect bands respectively and the expression amount was determined by densitometry, or visually.

[5] = system: adriamycin-induced glomerular sclerosis mouse; test: Adriamycin-induced glomerular sclerosis model mouse (BALB/c); assay type: in vivo
Excerpt: An adriamycin-induced glomerular sclerosis mouse was used as a renal disease model to confirm effect of PPAR agonist MCC-555 in the following manner. An adriamycin(AD)-induced glomerular sclerosis mouse is a pathological model which develops focal glomerular sclerosis in 3 weeks after the onset of nephrosis symptom while showing the symptom and eventually results in irreversible chronic renal insufficiency (Chen et. al., Nephron, vol. 78, pp.440-452, 1998). As shown in Examples 3, 4 and 5, MCC-555 is a compound confirmed to have L-FABP up-regulating activity. In the experiment, 7-week-age female BALB/c mice (purchased from Charles River Japan, Inc.) were used. At the first day of experiment (Day 0), Adriamycin (Sigma) was administered intravenously at 10 mg/kg (10 ml/kg dissolved in saline at 1 mg/ml). Normal group received intravenously an equivalent amount of saline only. To the mice were administered orally MCC-555 or carrier alone for 14 days from the first day of experiment (Day 0 to Day 13). The administration was initially conducted 1 hour before the adriamycin administration, and administration volume was 10 ml/kg for each time. In drug administration group (n=6), MCC-555 (suspension in 0.1% Tween 80-containing purified water) was administered at a dose of 10 mg/kg to mice that have received adriamycin. In control group (n=6), carrier (0.1% Tween 80-containing purified water) alone was administered to mice that have received adriamycin. Also in normal group (n=3), mice received carrier alone. Mice were separately housed in “a metabolic cage” and allowed to access food and water ad libitum while collecting urine for 24 hours. Specifically, collection of urine was performed 4 times in total, i.e., day 3-4, day 6-7, day 9-10, and day 13-14. Following measurement of volume, the collected urine was subjected to determination of urinary protein, NAG (N-acetyl-β-D-glucosaminidase) and creatinine (CRE) concentrations by clinical chemistry analyzer (SuperZ-818, […] Co.) After the collection of urine on the last experiment day (Day 14), blood was collected via abdominal aorta under ethereal anesthetization and serum was separated. Cholesterol and albumin were determined using Automated clinical analyzer TBA-80FR (TOSHIBA). Also, kidneys were isolated and fixed with neutral buffered formalin.

[6] = system: adriamycin-induced glomerular sclerosis hFABP-Tg mouse; test: Adriamycin-induced glomerular sclerosis model in transgenic mouse introduced with human L-FABP gene (hFABP-Tg mouse); assay type: in vivo; details: 10 mg/kg
Experimental: Transgenic mouse (hFABP-Tg mouse) introduced with human L-FABP gene was prepared. The hFABP-Tg mouse was used to make renal disease model similar to that of Example 8 and the effect of MCC-555 was identified.
In the preparation of hFABP-Tg mouse, male BCF1 mouse (13-week or over) was used for sterile mating and natural mating; female ICR mouse (10-week or over) for embryo transplant and as a foster mother; male BDF1 mouse (13-week or over) for mating; and female BCF1 mouse (8-week or over) for collection of eggs, respectively. The resultant transgenic mouse (B6C3F1 line) was used to backcross with BALB/c mouse.
The resultant female transgenic mouse was used to prepare a renal disease model (adriamycin-induced glomerular sclerosis model) and to confirm effects of drug (MCC-555). The preparation of disease model and confirmation of effect of a drug were conducted in a similar manner to that described in Example 8 above except that the dose of adriamycin on the first experiment day (Day 0) was 15 mg/kg (15 ml/kg, dissolved in saline at concentration of 1 mg/ml).
In drug administration group (n=5), MCC-555 (10 mg/kg) was administered to mice that have received adriamycin, and in control group (at the beginning of experiment, n=5), only carrier was administered to mice that have received adriamycin, In normal group (n=3), mice that were not treated with adriamycin received carrier. Collection of urine was performed 3 times in total, i.e., day 6-7 day (Day 7), day 10-11 (Day 11), and day 13-14 (Day 14) and urinary protein, NAG and creatinine concentrations were determined by Automated clinical analyzer after measurements of urine volume.

[7] = adriamycin 15 mg/kg, Day 7, 11, 14, FIG. 9

| Structure (SMILES) | L-FABP mRNA [1] | Induction of luciferase activity (L-FABP up-regulating activity) [2] | Up-regulating effect on L-FABP protein expression [3] | Induction of L-FABP mRNA [4] | Histological changes of kidney (tissue imaging examination) ([5]; 10 mg/kg orally for 14 days) | NAG excretion (index of proximal renal tubular injury) ([5]; 10 mg/kg orally for 14 days (Day 0 to Day 13), adriamycin 10 mg/kg i.v., FIG. 7) | Proteinuria (urinary protein) ([5]; 10 mg/kg orally for 14 days, adriamycin 10 mg/kg i.v., FIG. 7) | Blood biochemical examination parameters (blood cholesterol and albumin level) ([5]; 10 mg/kg orally for 14 days, serum at Day 14, FIG. 8) | Increase of NAG excretion amount after AD administration [6, 7] | Increase of urinary protein after AD administration [6, 7] | Animals died during the experiment ([6]; n=5, in the control group 3 animals died) |
| --- | --- | --- | --- | --- | --- | --- | --- | --- | --- | --- | --- |
| CCCc1c(OCCCCCCc2nn[nH]n2)ccc(C(C)=O)c1O [4-THA, 2-hydroxy-3-propyl-4-[6-(tetrazol-5-yl)hexyloxy]acetophenone] | increased |  |  |  |  |  |  |  |  |  |  |
| CCOC(=O)C1(CCCCCCOc2ccc(Cl)cc2)CO1 (stereo not shown) [Etomoxir, ethyl 2-[6-(4-chlorophenoxy)hexyl]oxiranecarboxylate] |  | Induction of luciferase activity was observed | also observed |  |  |  |  |  |  |  |  |
| O=C1NC(=O)C(Cc2ccc3cc(OCc4ccccc4F)ccc3c2)S1 (stereo not shown) [MCC-555, 5-[6-(2-fluorobenzyloxy)naphthalene-2-ylmethyl]thiazolidine-2,4-dione] |  | Induction of luciferase activity was observed | up-regulating effect on L-FABP protein expression was observed | induction of L-FABP mRNA was observed | inhibited | suppressed | improved | improved | significantly suppressed | significantly suppressed | no animals died |

— patent publication US6794154B1, “Remedies for kidney diseases and method for screening the same” (Tanabe Seiyaku Co., Ltd., priority 1999, dated 2004)
